Measured values reported in patent publication EP1388586A2, “Identification of broadly reactive DR restricted epitopes” (priority 1998, dated 1999).
Where two headings read alike, the source gives them in different places. Square brackets hold non-standard residues; d marks the D form. Peptide text beside a SMILES is read from it.

Tests used:
[1] = system: panel of purified HLA DR molecules; format: binding, human;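 further: competitive inhibition of radiolabeled probe peptide binding to purified HLA DR molecules, with inhibitory potency of unlabeled peptides taken as an approximation of affinity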
Procedure: (§1) Class II peptide-binding assays. […] These assays were chosen as to be representative of the most common DR alleles.
(§2) Radiolabeled peptides were iodinated using the chloramine-T method. […] In appropriate stoichiometric conditions, the IC50 of an unlabeled test peptide to the purified DR is a reasonable approximation of the affinity of interaction (Kd). Peptides were tested in two to four completely independent experiments. […] Final detergent concentration in the incubation mixture was 0.05% Nonidet P-40. Assays were performed at pH 7.0 with the exception of DR3, which was performed at pH 4.5, and DRw53, which was performed at pH 5.0.
(§3) All subsequent inhibition and direct binding assays were the performed using these class II concentrations.

DRB1*0101 (DR1) = molecular target: T1, DRB1*0101 (DR1) (Homo sapiens, UniProt P01903+P01911, A100R/D57E/F55L/F60I/F76Y/I96L/L162R/M171V/P40L/Q125E/R42F/V115G/Y59C); test: Class II peptide-binding assay, DR1; conditions: read-out: DR1 nM; Table VIII, In IC50 Format;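 further: competition assay: unlabeled test peptides inhibit binding of a radiolabeled probe peptide to purified DR, with half-maximal inhibition taken as an approximate dissociation constant Kd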
T1 construct: used as sources of human HLA class II molecules; endogenous in cells; host or cells: LG2 (EBV-transformed homozygous B cell line)
Procedure: as §1, §2, §3

DRB5*0101 (DR2w2a) = molecular target: T2, DRB5*0101 (DR2w2a) (Homo sapiens, UniProt P01903+Q30154); test: Class II peptide-binding assay, DR2w2a (DR2w2B2); conditions: read-out: DR2w2B2 nM; Table VIII, In IC50 Format;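 further: competitive binding assay: unlabeled peptide inhibiting binding of a radiolabeled probe peptide to purified DR molecules at pH 7.0, IC50 approximating Kd, lower means stronger binding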
T2 construct: used as sources of human HLA class II molecules; endogenous in cells; host or cells: GM3107 (EBV-transformed homozygous B cell line)

DRB1*0301 (DR3w17) = molecular target: T3, DRB1*0301 (DR3w17) (Homo sapiens, UniProt P01903+P01911, A100K/A102G/A103R/A169T/F55Y/I96L/K41T/L162R/M171V/P40S/Q125H/Q178H/Q39Y/R42S/S66N/T106N/T262R/W38E/Y61H); test: Class II peptide-binding assay, DR3 (pH 4.5); conditions: read-out: DR3 nM; Table VIII, In IC50 Format;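 further: unlabeled peptide competing with a radiolabeled probe peptide for binding to affinity-purified HLA-DR3, IC50 regarded as an approximation of Kd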
T3 construct: used as sources of human HLA class II molecules; endogenous in cells; host or cells: MAT (EBV-transformed homozygous B cell line)

DRB1*0401 (DR4w4) = molecular target: T4, DRB1*0401 (DR4w4) (Homo sapiens, UniProt P01903+P01911, A100K/A169T/F76Y/I96L/K127E/L162R/M171V/N62H/P40V/Q125Y/R42H/S133A/S149N/S66Y/V115G/V209L/W38E); test: Class II peptide-binding assay, DR4w4; conditions: read-out: DR4w4 nM; Table VIII, In IC50 Format;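 further: unlabeled test peptides compete with a radiolabeled probe peptide for binding to affinity-purified HLA-DR, with DR amount titrated to capture a small fraction of label, IC50 approximating Kd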
T4 construct: used as sources of human HLA class II molecules; endogenous in cells; host or cells: PREISS (EBV-transformed homozygous B cell line)
Procedure: as §1, §2, §3

DRB10404 (DR4w14) = molecular target: T5, DRB10404 (DR4w14) (Homo sapiens, UniProt P01903+P01911, A100R/A169T/F76Y/I96L/K127E/L162R/M171V/N62H/P40V/Q125Y/R42H/S133A/S149N/S66Y/V209L/W38E); test: Class II peptide-binding assay, DR4w14; conditions: read-out: DR4w14 nM; Table VIII, In IC50 Format;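 further: unlabeled peptides compete with a radiolabeled probe for binding to affinity-purified HLA-DR, neutral pH, class II amount titrated to bind a small fraction of label, IC50 approximates Kd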
T5 construct: used as sources of human HLA class II molecules; endogenous in cells; host or cells: BIN40 (EBV-transformed homozygous B cell line)

DRB1*1101 (DR5w11) = molecular target: T6, DRB1*1101 (DR5w11) (Homo sapiens, UniProt P01903+P01911, A100R/A169T/A87E/I96F/K41T/L162R/M171V/P40S/Q125H/Q178H/Q39Y/Q99D/R42S/S66Y/T262R/V115G/W38E); test: Class II peptide-binding assay, DR5w11; conditions: read-out: DR5w11 nM; Table VIII, In IC50 Format;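 further: competition by unlabeled test peptide against iodinated probe peptide binding to affinity-purified HLA-DR, class II amount titrated beforehand, half-maximal inhibitory concentration read as approximate Kd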
T6 construct: used as sources of human HLA class II molecules; endogenous in cells; host or cells: SWEIG (EBV-transformed homozygous B cell line)

DRB1*0701 (DR7) = DRB1*0701 (DR7) (Homo sapiens, UniProt P01903+P01911, A100R/A102G/A103Q/D57E/D86V/E43K/F76Y/K127E/L162R/M171V/P40G/Q125H/Q99D/R33Q/R42Y/R54Q/S133A/S66F/T210M/V115G/Y107V/Y59L/Y89S); test: Class II peptide-binding assay, DR7; conditions: read-out: DR7 nM; Table VIII, In IC50 Format;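 further: unlabeled peptides compete with an iodinated probe peptide for binding to affinity-purified HLA-DR at neutral pH, DR amount titered to bind a small tracer fraction, IC50 approximating Kd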

T6 sequence (P01903 26-254, other chains not shown): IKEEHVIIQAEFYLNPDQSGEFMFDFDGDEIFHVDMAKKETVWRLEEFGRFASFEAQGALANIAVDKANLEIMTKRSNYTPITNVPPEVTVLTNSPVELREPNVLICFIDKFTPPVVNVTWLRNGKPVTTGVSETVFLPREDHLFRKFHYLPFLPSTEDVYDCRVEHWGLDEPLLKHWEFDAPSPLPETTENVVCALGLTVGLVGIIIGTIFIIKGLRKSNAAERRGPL
T3 sequence (P01903 26-254, other chains not shown): as above

Compound: CC[C@H](C)[C@H](NC(=O)[C@H](CC(C)C)NC(=O)[C@H](Cc1ccccc1)NC(=O)[C@@H](NC(=O)[C@@H](NC(=O)[C@@H](NC(=O)[C@H](CC(C)C)NC(=O)[C@H](Cc1ccc(O)cc1)NC(=O)[C@H](CCCCN)NC(=O)[C@@H](NC(=O)[C@@H](N)CC(N)=O)C(C)C)C(C)C)[C@@H](C)CC)C(C)C)C(=O)N[C@@H](Cc1ccccc1)C(=O)N[C@@H](Cc1ccccc1)C(=O)N[C@@H](CC(=O)O)C(=O)N[C@@H](CC(C)C)C(=O)O [Peptide 27.415]
- Total Alleles Bound [1]: 2

Compound: CC[C@H](C)[C@H](NC(=O)[C@H](CO)NC(=O)[C@H](CO)NC(=O)[C@H](CC(N)=O)NC(=O)[C@@H](NC(=O)[C@@H](NC(=O)[C@H](CC(N)=O)NC(=O)[C@H](Cc1ccccc1)NC(=O)[C@@H](NC(=O)[C@H](CO)NC(=O)[C@@H](N)CO)C(C)C)C(C)C)C(C)C)C(=O)NCC(=O)N[C@@H](CC(C)C)C(=O)N[C@H](C(=O)N[C@@H](CCSC)C(=O)O)[C@@H](C)CC [Peptide 27.392]
- Total Alleles Bound [1]: 6

Compound: CC(C)C[C@H](NC(=O)CNC(=O)[C@H](C)N)C(=O)N[C@@H](CC(C)C)C(=O)NCC(=O)N[C@@H](CC(N)=O)C(=O)N[C@H](C(=O)N[C@@H](CO)C(=O)N[C@H](C(=O)N[C@H](C(=O)N[C@@H](CC(C)C)C(=O)N[C@@H](CC(C)C)C(=O)NCC(=O)NCC(=O)N[C@H](C(=O)O)C(C)C)C(C)C)[C@@H](C)O)C(C)C [Peptide 1188.13]
- Total Alleles Bound [1]: 4

Compound: CC(C)[C@H](NC(=O)[C@H](CO)NC(=O)[C@@H](NC(=O)[C@H](C)NC(=O)[C@H](CO)NC(=O)[C@H](CO)NC(=O)[C@H](C)NC(=O)[C@H](C)NC(=O)[C@H](Cc1ccc(O)cc1)NC(=O)[C@@H](NC(=O)[C@H](CO)NC(=O)CNC(=O)[C@H](CCC(N)=O)NC(=O)[C@@H]1CCCN1C(=O)[C@@H](N)CCC(=O)O)[C@@H](C)O)[C@@H](C)O)C(=O)N[C@@H](CC(=O)O)C(=O)O [Peptide 1136.71]
- Total Alleles Bound [1]: 5

Compound: CC[C@H](C)[C@H](NC(=O)[C@H](CC(=O)O)NC(=O)[C@H](CC(C)C)NC(=O)[C@@H](NC(=O)CNC(=O)[C@@H](NC(=O)[C@@H](NC(=O)[C@@H](NC(=O)[C@@H](NC(=O)[C@H](C)NC(=O)[C@H](CC(C)C)NC(=O)[C@@H](NC(=O)[C@H](CC(N)=O)NC(=O)[C@H](CO)NC(=O)[C@H](CC(C)C)NC(=O)[C@@H](N)CC(N)=O)C(C)C)[C@@H](C)O)[C@@H](C)CC)[C@@H](C)O)[C@@H](C)O)C(C)C)C(=O)O [Peptide 1136.24]
- Total Alleles Bound [1]: 4

Compound: CC[C@H](C)[C@H](NC(=O)[C@H](CC(C)C)NC(=O)[C@H](CC(=O)O)NC(=O)[C@@H](NC(=O)[C@H](Cc1ccccc1)NC(=O)[C@H](Cc1ccc(O)cc1)NC(=O)[C@H](Cc1c[nH]cn1)NC(=O)[C@H](Cc1c[nH]cn1)NC(=O)[C@@H](N)[C@@H](C)O)C(C)C)C(=O)NCC(=O)NCC(=O)N[C@@H](C)C(=O)N[C@@H](CCSC)C(=O)N[C@@H](CC(C)C)C(=O)N[C@@H](CO)C(=O)N[C@@H](CC(C)C)C(=O)O [Peptide 1136.47]
- Total Alleles Bound [1]: 4

Compound: CC[C@H](C)[C@H](NC(=O)[C@H](CO)NC(=O)[C@H](CO)NC(=O)[C@H](CC(N)=O)NC(=O)[C@@H](NC(=O)[C@@H](NC(=O)[C@H](CC(N)=O)NC(=O)[C@@H](N)Cc1ccccc1)C(C)C)C(C)C)C(=O)NCC(=O)N[C@@H](CC(C)C)C(=O)N[C@H](C(=O)N[C@@H](CCSC)C(=O)N[C@H](C(=O)N[C@@H](CC(C)C)C(=O)N[C@@H](CO)C(=O)O)C(C)C)[C@@H](C)CC [Peptide 27.384]
- Total Alleles Bound ([1]; Table V B) Correct Predictions, 12 DR molecules listed): 4

Compound: CC[C@H](C)[C@H](NC(=O)[C@@H](NC(=O)[C@H](CC(N)=O)NC(=O)[C@H](CCCCN)NC(=O)[C@@H](N)C(C)C)C(C)C)C(=O)NCC(=O)N1CCC[C@H]1C(=O)N[C@@H](Cc1ccccc1)C(=O)N[C@@H](CCSC)C(=O)N[C@@H](CCCCN)C(=O)N[C@@H](C)C(=O)N[C@H](C(=O)N[C@@H](CS)C(=O)N[C@H](C(=O)N[C@@H](CCC(=O)O)C(=O)O)C(C)C)C(C)C [Peptide 27.417]
- Total Alleles Bound [1]: 6

Compound: CC(C)C[C@H](NC(=O)[C@@H](NC(=O)[C@H](C)NC(=O)[C@H](C)NC(=O)[C@H](CCCCN)NC(=O)[C@H](C)NC(=O)[C@H](Cc1ccccc1)NC(=O)[C@H](CCCCN)NC(=O)[C@@H](C)N)[C@@H](C)O)C(=O)N[C@@H](CCCCN)C(=O)N[C@@H](C)C(=O)N[C@@H](C)C(=O)N[C@H](C)C(N)=O [Peptide 871.01] (H-[dA]KFAKAATLKAA[dA]-NH2)
- IC50 (DRB1*0101 (DR1)): 4.2 nM
- IC50 (DRB5*0101 (DR2w2a)): 14.7 nM
- IC50 (DRB1*0301 (DR3w17)): 37500 nM
- IC50 (DRB1*0401 (DR4w4)): 3.1 nM
- IC50 (DRB10404 (DR4w14)): 9.6 nM
- IC50 (DRB1*1101 (DR5w11)): 14.6 nM
- IC50 (DRB1*0701 (DR7)): 301 nM
